The subject of assay [1] is hypercholesterolaemic mice. As to the kind of experiment: Cholesterol reduction in hypercholesterolaemic mice on a high cholesterol-cholic acid diet (Example 4). The class given is in vivo. The note with it: oral; for % Reduction LDL + VLDL cholesterol: heparin precipitation. As to the method:
Compound P2 provided the following results with hypercholesterolaemic mice: Mice were made hypercholesterolaemic by being fed on a high cholesterol-cholic acid diet for seven days and were dosed orally on the sixth and seventh days. Low density and very low density lipoprotein (LDL and VLDL) cholesterol were measured together by heparin precipitation.

A further assay has as its system Male rats. The assay is described as follows: Serum lipids in rats given the compound in the diet for 7 days (Example 5). The class given is in vivo. The note with it: 0.1 g of the compound per kg of diet for 7 days, mean of 8 ± S.E. From the text: Compound P3 provided the following results with rats: Male rats were fed on a normal diet or on a diet that contained O.lg of the compound per kg of diet for 7 days. Results are means of 8 values ± S.E.

For assay [2], the system named is Obese subjects. As to the kind of experiment: Clinical first study: obese subjects on a low energy liquid formula diet, six weeks (Example 6). The class given is in vivo, human. The note with it: 50 mg pfb, qds for six weeks, fasted. As to the method:
Clinical studies using compound P3: First study Obese subjects (at least 20% above ideal weight) were given a low energy liquid formula diet and treated with the compound (50 mg pfb, qds) or placebo for six weeks. Serum triglyceride and cholesterol were measured in the fasted state just prior to the first dose and on the morning after the last dose of compound or placebo. Results are means ± S.E. with the number of subjects in parenthesis.

For assay [3], the system named is Obese subjects. The assay is described as follows: Clinical second study: crossover in obese subjects on a low energy high fibre diet, 2 x six weeks (Example 6). The class given is in vivo, human. The note with it: 50 mg pfb qds first week, then 100 mg qds, fasted. As to the method:
Clinical studies using compound P3: Second study Obese subjects (at least 20X above ideal weight) were given a low energy high fibre diet and treated with the compound or placebo for six weeks after which they were given the alternative treatment for a further six weeks. For the first week of treatment (weeks 1 or 7) the dose level was 50 mg pfb, qds and after this it was 100 mg qds. Serum lipids were measured in the fasted state just prior to the first dose and after each six week period of dosing. Results are means ± S.E. with the number of subjects in parentheses.

The next assay has as its system Zucker fa/fa male rats. As to the kind of experiment: Plasma lipids in Zucker fa/fa rats dosed once daily for 39 days (Example 7). The class given is in vivo. The note with it: 7.8µmol/kg once daily for 39 days, mean of 8 ± S.E.M. The protocol:
Zucker fa/fa male rats of about 550g were dosed once daily with either water or Compound P3 (7.8µmol/kg) for 39 days. Results are means of 8 values ± S.E.M.

A further assay relates to normal mice. As to the kind of experiment: Serum lipids in normal mice dosed daily for 28 days (Example 1). The note with it: normal female CFLP mice, mean of 8 ± S.E.; for Serum triglyceride: untreated 40.0±3.2, P < 0.001; for Serum cholesterol: untreated 67.6±2.4. The class given is in vivo. The protocol: Compound P1 provided the following results with normal mice: Normal female CFLP mice were dosed daily at 11.00h for 28 days. One group was also dosed at 17.00h daily. 0n the day after dosing terminated they were killed at 14.00h. Results are means of 8 values ± S.E.

Assay [4] relates to Goldthioglucose-induced obese mice. As to the kind of experiment: Serum lipids in goldthioglucose-induced obese mice (Example 2). The class given is in vivo. The note with it: goldthioglucose-induced obese female CFLP mice, 20 mg/kg p.o. once daily for 28 days, mean of 4 ± S.E. As to the method: Compound Pl provided the following results with Goldthioglucose-induced obese mice: . Female CFLP mice were given goldthioglucose (0.85 mg/g body wt., i.p.) and after 17 weeks the obese mice (mean wt. 57g) were selected and randomized into two groups of 4. The compound (20 mg/kg, p.o.) or water was given once daily for 28 days and the mice were killed the day after the last dose. Results are means of 4 values ± S.E.

For assay [5], the system named is High fat diet-induced obese mice. The assay is described as follows: Serum lipids in high fat diet-induced obese mice (Example 3). The class given is in vivo. The note with it: high fat diet-induced obese female CFLP mice, 20 mg/kg p.o. once daily for 28 days, mean ± S.E. (n=12). The protocol:
Compound Pl provided the following results with High fat diet-induced obese mice: Female CFLP mice were fed on a high protein, high fat diet. After 13 weeks the obese mice (mean wt. 49g) were selected and randomized into groups of 12. The compound (20 mg/kg, p.o.) or water was given once daily for 28 days and the mice were killed the day after the last dose. Results are means ± S.E, with numbers of determinations in parentheses.

The mark [6] stands for this setting: total dose on days 6 and 7 5 mg/kg.
Where [7] appears, read: total dose on days 6 and 7 10 mg/kg.
Setting [8] is: total dose on days 6 and 7 25 mg/kg.
Where [9] appears, read: 2.5 mg/kg body wt. p.o. daily for 28 days.
The mark [10] stands for this setting: 2.5 mg/kg body wt. p.o. twice daily for 28 days.
Where [11] appears, read: 5 mg/kg body wt. p.o. daily for 28 days.
Where [12] appears, read: 10 mg/kg body wt. p.o. daily for 28 days.
[13] abbreviates: 15 mg/kg body wt. p.o. daily for 28 days.

The structures appear in SMILES notation.

On to `COC(=O)COc1ccc(C[C@@H](C)NC[C@H](O)c2cccc(Cl)c2)cc1` (racemic) [Compound P2, N-(2-(4-carbomethoxymethoxyphenyl)-1-methylethyl)--2-hydroxy-2-(3-chlorophenyl)ethanamine nydrobromide], for which the “% Reduction Total cholesterol” value in assay [1] (setting [6]) amounted to 24%; in assay [1] (setting [7]), 22%; in assay [1] (setting [8]) it was 34%. Further, the “% Reduction LDL + VLDL cholesterol” value in assay [1] (setting [6]) is recorded as 29%; in assay [1] (setting [7]), 28%; in assay [1] (setting [8]), 55%.
`COC(=O)c1ccc(C[C@@H](C)NC[C@H](O)c2ccccc2)cc1` (racemic) [Compound P3, N-[2-(4-carbomethoxyphenyl)-1-methylethyl]-2-hydroxy-2-phenylethanamine hemifumarate] returned a Serum cholesterol in the assay with Male rats (control 52±2) of 54±3 mg/100ml. The Serum triglyceride in the assay on Male rats (control 112±10, P < 0.05) was found to be 70±4 mg/100ml. In the assay with Obese subjects [2] (initial 2.05±0.16 mM (4), subjects with initial levels below 1 mM excluded, placebo 21±7), the “Serum triglyceride % Fall” value stood at 52±6%. Besides, the “Serum cholesterol % Fall” value in the assay with Obese subjects [2] (initial 5.81±0.44 mM (5), placebo 19±5) was found to be 21±7%. Moreover, the “HDL cholesterol % change” value is reported as 0±4% in the assay on Obese subjects [3] (1st 6 weeks, initial 1.50±0.07 mM (15), placebo -10±3) and “+14±3%” with Obese subjects [3] (2nd 6 weeks (after crossover), initial 1.30±0.04 mM (15), placebo -5±4). In addition, the “Serum triglyceride % change” value in the assay with Obese subjects [3] (1st 6 weeks, initial 1.57±0.18 mM (15), placebo -12±5) was -25±5%; in the assay on Obese subjects [3] (2nd 6 weeks (after crossover), initial 1.21±0.18 mM (15), placebo +33±10), -4±8%. Further, the “Serum cholesterol % change” value is recorded as -9±3% in the assay with Obese subjects [3] (1st 6 weeks, initial 6.10±0.24 mM (15), placebo -13±3) and “+5±3%” with Obese subjects [3] (2nd 6 weeks (after crossover), initial 5.30±0.29 mM (15), placebo +4±3). For the same molecule, in the assay on Zucker fa/fa male rats (water 3.44 ± 0.10, p < 0.05), the “Plasma Cholesterol” value was 3.07 ± 0.14 mM. Moreover, the “Plasma Triglyceride” value in the assay on Zucker fa/fa male rats (water 9.3 ± 0.7, p < 0.02) was determined as 5.9 ± 0.9 mM.
As for `COC(=O)c1ccc(CC(C)NCC(O)c2ccc(O)c(CO)c2)cc1` (centres unmarked) [Compound P1, N-(2-(4-carbomethoxghenyl)-1-metnylethyl) -2-hydroxy-2-(4-hydroxy-3-hydroxymethylphenyl) ethanamine], the Serum triglyceride came to 21.5±1.1 mg/100 ml with normal mice (setting [9]); 16.4±0.8 mg/100 ml with normal mice (setting [10]); 16.3±1.1 mg/100 ml in the assay on normal mice (setting [11]); 14.5±0.7 mg/100 ml in the assay on normal mice (setting [12]); 14.3±0.8 mg/100 ml with normal mice (setting [13]); 22±3 mg/100 ml in assay [4] (control 35±4, P < 0.05). For the same molecule, the Serum triglyceride in assay [5] (control 73±8, P < 0.01) is given as 34±2**(12) mg/100ml. For the same molecule, the Serum cholesterol with normal mice (setting [9]) is listed as 67.0±3.2 mg/100 ml; in the assay on normal mice (setting [10]) it was 74.4±1.7 mg/100 ml; with normal mice (setting [11]), 69.1±2.4 mg/100 ml; in the assay on normal mice (setting [12]), 68.4±3.3 mg/100 ml; in the assay on normal mice (setting [13]), 71.0±2.4 mg/100 ml; in assay [4] (control 82±4), 81±6 mg/100 ml. The Serum cholesterol in assay [5] (control 118±3, P < 0.05) is listed as 103±5*(12) mg/100ml.

For the origin of these results see patent EP0244062A2, “Use of aryl ethanol amine derivatives in the treatment of atherosclerosis” (BEECHAM GROUP PLC, priority 1986, dated 1987).
